PMC9597602, “Metal Complexes as Antifungals? From a Crowd-Sourced Compound Library to the First In Vivo Experiments” (JACS Au, 2022)
“Also recorded” adds a separate entry of the source. Like-named read-outs stand apart in the source and are kept apart here.

Columns and labels:
[1] = tested on: Cryptococcus deuterogattii CBS7750 VGII; Serotype B; experiment: Antifungal MIC assay, extended panel; format: cell-based; conditions: extended panel, second batch; ≥80 or ≥50% inhibition
Procedure: (§1) For the fungal assays, both fungi (yeast) strains were cultured for 3 days on Yeast Extract-Peptone Dextrose (YPD; Becton Dickinson 242720) agar at 30 °C. A yeast suspension of 1 × 10^6 to 5 × 10^6 CFU/mL (as determined by OD530) was prepared from five colonies from the agar plates, subsequently diluted with Yeast Nitrogen Base media (YNB; Becton Dickinson 233520), and added to each well of the compound containing plates (384-well plates, NBS; Corning CLS3640), giving a final cell density of 2.5 × 10^3 CFU/mL and a total volume of 50 μL. Plates were covered and incubated at 35 °C for 36 h without shaking. […] MIC values were recorded as the lowest concentration at which the growth was inhibited by ≥80%, equivalent to ″optically clear-to-slightly hazy″ or MIC score of 0–1 as per CLSI guidelines M27 Reference Method for Broth Dilution Antifungal Susceptibility Testing of Yeasts. […] Fluconazole (Sigma F8929) was used as internal control on each plate for all strains. All compounds were tested as two technical replicates in two to four independent biological assays, n = 4–8 final data.

[2] = tested on: Candida tropicalis ATCC 750; experiment: Antifungal MIC assay, extended panel; format: cell-based; conditions: extended panel, second batch; ≥80 or ≥50% inhibition
Procedure: as §1

[3] = tested on: Cryptococcus deuterogattii ATCC 32609 VGII; experiment: Antifungal MIC assay, extended panel; format: cell-based; conditions: extended panel, second batch; ≥80 or ≥50% inhibition
Procedure: as §1

[4] = tested on: Candida glabrata ATCC 90030 NCCLS 84; experiment: Antifungal MIC assay, extended panel; format: cell-based; conditions: extended panel, second batch; ≥80 or ≥50% inhibition
Procedure: as §1

[5] = tested on: Candida tropicalis ATCC 750; experiment: Antifungal MIC assay, extended panel; format: cell-based; conditions: extended panel; 50% inhibition, MIC score 2
[6] = tested on: Candida glabrata ATCC 90030 NCCLS 84; experiment: Antifungal MIC assay, extended panel; format: cell-based; conditions: extended panel; 50% inhibition, MIC score 2
[7] = tested on: Pseudomonas aeruginosa ATCC 27853 QC control strain; experiment: CO-ADD antibacterial MIC assay; format: cell-based; conditions: initial CO-ADD dose-response screening; ≥80% growth inhibition
Summary of the method: (§2)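 Broth microdilution: compounds exposed for 18 h at 37 °C, static, to 5 × 10^5 CFU/mL of mid-log bacteria in cation-adjusted MH broth. OD600 defines MIC as lowest concentration with ≥80% inhibition; n = 4 (2 technical × 2 biological).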

[8] = tested on: Acinetobacter baumannii ATCC 19606 type strain; experiment: CO-ADD antibacterial MIC assay; format: cell-based; conditions: initial CO-ADD dose-response screening; ≥80% growth inhibition
Summary of the method: as §2

[9] = tested on: Escherichia coli ATCC 25922 FDA control strain; experiment: CO-ADD antibacterial MIC assay; format: cell-based; conditions: initial CO-ADD dose-response screening; ≥80% growth inhibition
Summary of the method: as §2

[10] = tested on: Cryptococcus neoformans H99 ATCC 208821 type strain; experiment: Antifungal MIC assay; format: cell-based; conditions: for MIC50 Cryptococcus neoformans ATCC 208821: 50% inhibition, MIC score 2
Summary of the method: (§3)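 YNB broth; inoculum 2.5 × 10^3 CFU/mL final; 35 °C, 36 h, no shaking; MIC at ≥80% inhibition (CLSI M27 score 0–1); n = 4–8.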

human red blood cells = format: cell-based
Summary of the method: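 Washed human erythrocytes at 0.5 × 10^8 cells/mL incubated with compound, then centrifuged. Haemolysis read as supernatant OD405, normalised to untreated cells (0%) and 1% Triton X-100 (100%), with melittin as internal plate control.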

G. mellonella larvae = experiment: Galleria mellonella in vivo toxicity assay; conditions: 10 μL of the highest concentration injected, monitored 6 days
Procedure: Based on criteria of overall antifungal activity, cytotoxicity, and hemolysis as well as compound availability, we selected compounds Co1, Ag2, Eu1, Ir1, Pt1, Pt2, Pt4, Pt5, Au1, Au2, and Au4 to conduct a preliminary in vivo toxicity assay. […] The compounds were dissolved in DMSO and diluted to the highest possible final concentration (Table 3). The larvae were then monitored for 6 days for survival and health using the G. mellonella Health Index Scoring System.[111] […] For the other compounds, no detrimental effects could be observed in the larvae over the monitoring period. […] Nevertheless, factors such as the metabolism, excretion, and/or accumulation of the various metal complexes and their metabolites will still need to be studied more rigorously in rodent models if they are to be advanced into the preclinical pipeline.
The toxicity of compounds was tested in vivo using the G. mellonella model using our previously described methods,[61] Briefly, G. mellonella larvae were reared in a controlled environmental room at Macquarie University, Sydney, Australia, at 30 °C and 65% humidity with a 12-h light/dark cycle. Larvae (200–250 mg) were individually injected with 10 μL of chemical into the last right pro-leg using a 100 μL syringe (Hamilton Ltd.). Each compound was dissolved in DMSO at the maximum concentration given in Table 3 and also diluted in water to final concentrations of 100, 10, and 1 μM. We injected five larvae in triplicate for each of the four dilutions for each compound. Larvae injected with different dilutions of DMSO (10^–1, 10^–2, and 10^–3) were included as negative controls. Following injection, the larvae were incubated at 30 °C and monitored every 24 h for 6 days. Larval performance was assessed according to the G. mellonella Health Index Scoring System.[111] The experiments were repeated over three separate days for biological triplicates.

[11] = tested on: HEK-293 human embryonic kidney cells ATCC CRL-1573
Procedure: The cells were incubated together with the compounds for 20 h at 37 °C in 5% CO2. […] Tamoxifen (Sigma T5648) was used as internal control on each plate.

[12] = tested on: Cryptococcus deuterogattii ATCC 32609 VGII; experiment: Antifungal MIC assay, extended panel; format: cell-based; conditions: extended panel; 50% inhibition, MIC score 2
[13] = tested on: Cryptococcus deuterogattii CBS7750 VGII; Serotype B; experiment: Antifungal MIC assay, extended panel; format: cell-based; conditions: extended panel; 50% inhibition, MIC score 2
[14] = tested on: Candida auris CBS10913 JCM 15448; experiment: Antifungal MIC assay, extended panel; format: cell-based; conditions: extended panel; for MIC50 Candida auris CBS10913: 50% inhibition, MIC score 2
Summary of the method: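 This broth dilution MIC test for yeast used colonies cultured 3 days at 30 °C on YPD agar, suspended to 1 × 10^6 to 5 × 10^6 CFU/mL by OD530 and diluted with YNB. Cells were added at a final 2.5 × 10^3 CFU/mL (50 μL total) to 384-well plates with compound, incubated unshaken at 35 °C for 36 h, with fluconazole as an internal control on every plate.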

[15] = tested on: Candida auris CBS12373 KCTC 17810; experiment: Antifungal MIC assay, extended panel; format: cell-based; conditions: extended panel; for MIC50 Candida auris CBS12373: 50% inhibition, MIC score 2
Summary of the method: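 This broth microdilution MIC test followed the reference method for antifungal susceptibility testing of yeasts. Fluconazole served as the internal control on every plate. Inoculum came from 3-day YPD agar cultures, was diluted in YNB to 2.5 × 10^3 CFU/mL in 50 μL per well of 384-well plates, and was incubated 36 h at 35 °C. Compounds ran as two technical replicates across two to four independent assays.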

[16] = tested on: methicillin-resistant Staphylococcus aureus ATCC 43300; experiment: CO-ADD antibacterial MIC assay; format: cell-based; conditions: initial CO-ADD dose-response screening; ≥80% growth inhibition
Summary of the method: as §2

[17] = tested on: Candida albicans ATCC 90028 NCCLS11; experiment: Antifungal MIC assay; format: cell-based
Summary of the method: as §3

[18] = extended panel, second batch, ≥80 or ≥50% inhibition
[19] = initial CO-ADD screening, 1 h, 10% hemolysis
[20] = ranges obtained upon retesting, new batch
[21] = read-out: HEK293 CC50, ranges obtained upon retesting, new batch
[22] = initial CO-ADD dose-response screening, ≥80% growth inhibition
[23] = second batch, ≥80 or ≥50% inhibition

Row | SMILES | MIC [1] [µM] | MIC Cryptococcus deuterogattii ATCC 32609 [3] [µM] | MIC50 Candida tropicalis ATCC 750 [5] [µM] | MIC50 Candida glabrata ATCC 90030 [6] [µM] | MIC Pa [7] | MIC Ab [8] | MIC Ec [9] | MIC50 Cryptococcus neoformans ATCC 208821 ([10]; extended panel) [µM] | RBC HC10 (human red blood cells; [19]) | RBC HC10 (human red blood cells; [20]) [µM] | CC50 [11, 21] [µM] | MIC50 Cryptococcus deuterogattii ATCC 32609 [12] [µM] | MIC50 Cryptococcus deuterogattii CBS7750 [13] [µM] | MIC50 Candida auris CBS10913 [14] [µM] | MIC50 Candida auris CBS12373 [15] [µM] | also measured
1 | c1ccc([PH]([Au][S]c2ccccn2)(c2ccccc2)c2ccccc2)cc1 [Au2] | 0.098 | 0.049 to 0.391 | ≥ 200 | > 200 | >32 mg/L | >32 mg/L | >32 mg/L | 0.024 to 0.195 | >32 µg/mL | > 200 | 0.8 to 200 | 0.049 to 0.195 | 0.049 to 1.56 | 0.098 to 1.56 | 0.098 to 0.195 | MIC [2]: >200 µM; MIC [4]: >200 µM; MIC Cryptococcus neoformans ATCC 208821 [10, 18]: 0.024 to 0.195 µM; toxicity (G. mellonella larvae): showed signs of toxicity; also recorded: toxic at 1 mM; HEK CC50 ([11]; initial CO-ADD screening, 20 h): >32 mg/L; MIC ([14]; second batch, ≥80 or ≥50% inhibition, read-out: MIC* Candida auris CBS10913): 0.195 µM; MIC ([15]; second batch, ≥80 or ≥50% inhibition, read-out: MIC* Candida auris CBS12373): 0.195 µM
2 | CS(=O)(=O)[O][Pd][c]1ccccc1-c1ccccc1N.CS(=O)(=O)[O][Pd][c]1ccccc1-c1ccccc1N [Pd2] | 0.098 | 0.024 to 0.049 | 0.195 to 0.391 | 0.012 to 0.195 | >20 µM | >20 µM | >20 µM | ≤0.006 to 0.024 | >20 µM | 0.2 to 3 | 38 to 53 | 0.024 to 0.098 | ≤ 0.006 | 0.024 to 0.098 | 0.024 to 0.049 | MIC Candida tropicalis ATCC 750 [2]: 0.195 to 0.391 µM; MIC Candida glabrata ATCC 90030 [4]: 0.049 to 0.195 µM; MIC MRSA (Sa) [16]: >20 µM; MIC ([10]; extended panel, second batch, ≥80 or ≥50% inhibition, read-out: MIC* Cryptococcus neoformans ATCC 208821): 0.024 µM; MIC Cn [10, 22]: 0.31 µM; CC50 ([11]; read-out: HEK CC50, initial CO-ADD screening, 20 h): > 20 µM; MIC Candida albicans ATCC 90028 [17, 18]: 0.05 to 0.2 µM; MIC50 Candida albicans ATCC 90028 ([17]; extended panel, 50% inhibition, MIC score 2): 0.049 to 0.195 µM; MIC Ca [17, 22]: 1.25 µM; MIC Candida auris CBS10913 [14, 23]: 0.024 to 0.098 µM; MIC Candida auris CBS12373 [15, 23]: 0.024 to 0.049 µM
